Data published in publication PMC9958325 (Nature Communications, 2023).
Values joined by “and” are separate entries in the source; they are usually repeats but may differ in a detail not shown here. Equal entries are not always repeated. Where two headings read alike, the source gives them in different places.

How the values were obtained:
SARS-CoV-2^WK-521 = assay: microbe, parasite or virus in culture; type: cell-based; design: EC95, individual assays / EC95, Average: unit: µM
[1] = tested on: SARS-CoV-2 TKYS02037/ο BA.2; assay: microbe, parasite or virus in culture; type: cell-based
human calpain = molecular target: T1, human calpain (Homo sapiens, UniProt P07384); assay: Human calpain activity assay; type: biochemical; conditions: triplicate, read-out: %inhibition against humanCalpain
T1 sequence (P07384 2-714): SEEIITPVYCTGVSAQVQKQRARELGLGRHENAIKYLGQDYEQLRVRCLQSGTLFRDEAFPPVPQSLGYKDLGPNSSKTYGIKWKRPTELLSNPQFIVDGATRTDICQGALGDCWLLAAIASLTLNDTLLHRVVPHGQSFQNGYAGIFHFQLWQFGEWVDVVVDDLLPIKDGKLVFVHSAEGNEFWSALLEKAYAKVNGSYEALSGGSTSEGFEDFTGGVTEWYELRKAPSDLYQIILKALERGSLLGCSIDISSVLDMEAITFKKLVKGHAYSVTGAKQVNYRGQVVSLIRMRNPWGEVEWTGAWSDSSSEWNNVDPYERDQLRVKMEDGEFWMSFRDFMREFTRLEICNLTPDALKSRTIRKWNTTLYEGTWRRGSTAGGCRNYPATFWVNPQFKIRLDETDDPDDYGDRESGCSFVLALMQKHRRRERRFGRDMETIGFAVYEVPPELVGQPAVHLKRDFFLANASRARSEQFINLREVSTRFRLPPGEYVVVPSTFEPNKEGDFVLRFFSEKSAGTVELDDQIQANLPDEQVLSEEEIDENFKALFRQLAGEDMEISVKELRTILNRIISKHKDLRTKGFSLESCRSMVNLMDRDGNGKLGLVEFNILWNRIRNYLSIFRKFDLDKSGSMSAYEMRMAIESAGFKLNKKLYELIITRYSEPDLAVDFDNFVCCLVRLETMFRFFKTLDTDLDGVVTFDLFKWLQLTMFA
T1 sequence (P04632 1-268 partner): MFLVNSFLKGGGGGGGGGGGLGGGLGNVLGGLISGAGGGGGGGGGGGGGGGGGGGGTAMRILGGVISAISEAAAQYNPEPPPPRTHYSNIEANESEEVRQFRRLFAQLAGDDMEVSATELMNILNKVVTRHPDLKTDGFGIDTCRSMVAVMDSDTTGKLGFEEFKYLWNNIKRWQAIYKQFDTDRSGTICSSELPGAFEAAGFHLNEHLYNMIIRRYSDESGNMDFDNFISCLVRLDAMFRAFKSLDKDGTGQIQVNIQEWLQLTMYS

HeLa-ACE2-TMPRSS2 cells = assay: Intracellular concentrations of compounds (LC/MS), HeLa-ACE2-TMPRSS2 cells; conditions: for Intracellular amount, avg / Intracellular amount, individual: 6 h; for intracellular compound, /1x10^6: calculated value per cell count; for intracellular compound, calculated value /20uL: from AUC against pmol standard curve
[2] = tested on: SARS-CoV-2^WK521 in A549-ACE2-TMPRSS2 cells; assay: Antiviral assay, A549-ACE2-TMPRSS2 cells, WK521; type: cell-based
[3] = tested on: SARS-CoV-2 TKYTS14631/ο BA.5; assay: microbe, parasite or virus in culture; type: cell-based
[4] = tested on: SARS-CoV-2^WK521 in HeLa-ACE2-TMPRSS2 cells; assay: Antiviral assay, HeLa-ACE2-TMPRSS2 cells, WK521; type: cell-based
[5] = tested on: SARS-CoV-2 UT-NCD1757-1N/ο BA.2.75; assay: microbe, parasite or virus in culture; type: cell-based
[6] = Hela ACE2 TMPRSS2, drug 10, duplicates
[7] = Hela ACE2 TMPRSS2, drug 50, duplicates
[8] = Hela ACE2 TMPRSS2, drug 100, duplicates

CC(C)(C)[C@H](NC(=O)C(F)(F)F)C(=O)N1C[C@H]2[C@@H]([C@H]1C(=O)N[C@H](C#N)C[C@@H]1CCNC1=O)C2(C)C [Nirmatrelvir, reference compound]
EC95, individual assays (SARS-CoV-2^WK-521): 8.01 and 9.89 and 6.31 and 7.05
SARS-CoV2 RNA VeroE6 cell-based assay EC95 (SARS-CoV-2^WK-521): 7810 ± 1550 nM
EC50 (SARS-CoV-2^WK-521; Severe acute respiratory syndrome coronavirus 2, Vero C1008, read-out: EC50, Average): 942 nM
EC50 (SARS-CoV-2^WK-521; Severe acute respiratory syndrome coronavirus 2, Vero C1008, read-out: EC50, VeroE6 + 2 µM CP100356): 25 nM
EC50 (SARS-CoV-2^WK-521; Severe acute respiratory syndrome coronavirus 2, Vero C1008, read-out: EC50, VeroE6 with CP100356, Average): 25 nM
EC50 (SARS-CoV-2^WK-521; Severe acute respiratory syndrome coronavirus 2, Vero C1008, read-out: EC50, VeroE6 with CP100356, individual assays): 22 nM
EC50 (SARS-CoV-2^WK-521; Severe acute respiratory syndrome coronavirus 2, Vero C1008, read-out: SARS-CoV2 RNA VeroE6 cell-based assay EC50): 940 ± 210 nM
EC50 (SARS-CoV-2^WK-521; read-out: EC50, Average): 1020 nM
EC50 (SARS-CoV-2^WK-521; read-out: EC50, VeroE6 with CP100356, individual assays): 27 nM
EC50 (SARS-CoV-2^WK-521; read-out: EC50, individual assays): 1090 nM and 700 nM and 1150 nM and 830 nM and 1470 nM
EC50 ([1]; Severe acute respiratory syndrome coronavirus 2, Vero C1008, read-out: EC50 against TKYVS2037/ο BA.2): 1240 ± 125 nM
EC50 ([1]; Severe acute respiratory syndrome coronavirus 2, Vero C1008, read-out: EC50 ο BA2, individual assays): 1230 nM
EC50 ([1]; read-out: EC50 ο BA2, individual assays): 1120 nM and 1370 nM
inhibition at 0.000128 µM (human calpain; 0.000128 µM): 0%
inhibition at 0.00064 µM (human calpain; 0.00064 µM): 0%
inhibition at 0.0032 µM (human calpain; 0.0032 µM): 0%
inhibition at 0.08 µM (human calpain; 0.08 µM): 0%
inhibition at 0.4 µM (human calpain; 0.4 µM): 0%
Intracellular amount, avg (HeLa-ACE2-TMPRSS2 cells; Hela ACE2 TMPRSS2, 10uM): 0.5065 pmol(total)
Intracellular amount, individual (HeLa-ACE2-TMPRSS2 cells; Hela ACE2 TMPRSS2, 10uM): 0.5088 pmol(total) and 0.5041 pmol(total)
Intracellular amount, avg (HeLa-ACE2-TMPRSS2 cells; Hela ACE2 TMPRSS2, 50uM): 1.799 pmol(total)
Intracellular amount, individual (HeLa-ACE2-TMPRSS2 cells; Hela ACE2 TMPRSS2, 50uM): 1.518 pmol(total) and 2.08 pmol(total)
Intracellular amount, avg (HeLa-ACE2-TMPRSS2 cells; Hela ACE2 TMPRSS2, 100uM): 3.821 pmol(total)
Intracellular amount, individual (HeLa-ACE2-TMPRSS2 cells; Hela ACE2 TMPRSS2, 100uM): 3.049 pmol(total) and 4.592 pmol(total)
intracellular compound, pmol(total) (HeLa-ACE2-TMPRSS2 cells; [6]): 0.5088 pmol and 0.5041 pmol
intracellular compound, /1x10^6 (HeLa-ACE2-TMPRSS2 cells; [6]): 0.2035 /1x10^6 and 0.2016 /1x10^6
intracellular compound, calculated value /20uL (HeLa-ACE2-TMPRSS2 cells; [6]): 0.53 /20uL and 0.52 /20uL
intracellular compound, pmol(total) (HeLa-ACE2-TMPRSS2 cells; [7]): 1.518 pmol and 2.08 pmol
intracellular compound, /1x10^6 (HeLa-ACE2-TMPRSS2 cells; [7]): 0.6073 /1x10^6 and 0.832 /1x10^6
intracellular compound, calculated value /20uL (HeLa-ACE2-TMPRSS2 cells; [7]): 1.70 /20uL and 1.83 /20uL
intracellular compound, pmol(total) (HeLa-ACE2-TMPRSS2 cells; [8]): 3.049 pmol and 4.592 pmol
intracellular compound, /1x10^6 (HeLa-ACE2-TMPRSS2 cells; [8]): 1.22 /1x10^6 and 1.837 /1x10^6
intracellular compound, calculated value /20uL (HeLa-ACE2-TMPRSS2 cells; [8]): 3.90 /20uL and 4.04 /20uL
EC50 ([2]; Severe acute respiratory syndrome coronavirus 2, SARS-CoV-2^WK521, read-out: EC50, A549-ACE2-TMPRSS2): 17 ± 3 nM
EC50 ([2]; Severe acute respiratory syndrome coronavirus 2, source data, read-out: EC50, A549-AEC2-TMPRSS2, Average): 17.4 nM
EC50 ([2]; Severe acute respiratory syndrome coronavirus 2, source data, read-out: EC50, A549-AEC2-TMPRSS2, individual assays): 20 nM
EC50 ([2]; source data, read-out: EC50, A549-AEC2-TMPRSS2, individual assays): 17.4 nM and 14.8 nM
EC50 ([3]; Severe acute respiratory syndrome coronavirus 2, Vero C1008, read-out: EC50 against TKYTS14631/ο BA.5): 1080 ± 150 nM
EC50 ([3]; Severe acute respiratory syndrome coronavirus 2, Vero C1008, read-out: EC50 ο BA5, Average): 1080 nM
EC50 ([3]; Severe acute respiratory syndrome coronavirus 2, Vero C1008, read-out: EC50 ο BA5, individual assays): 999 nM
EC50 ([3]; read-out: EC50 ο BA5, individual assays): 988 nM and 1250 nM
EC50 ([4]; Severe acute respiratory syndrome coronavirus 2, SARS-CoV-2^WK521, read-out: EC50, HeLa-ACE2-TMPRSS2): 240 ± 50 nM
EC50 ([4]; Severe acute respiratory syndrome coronavirus 2, read-out: EC50, HeLa-AEC2-TMPRSS2, individual assays, source data): 300 nM
EC50 ([4]; Severe acute respiratory syndrome coronavirus 2, source data, read-out: EC50, HeLa-AEC2-TMPRSS2, Average): 237 nM
EC50 ([4]; read-out: EC50, HeLa-AEC2-TMPRSS2, individual assays, source data): 200 nM and 210 nM
EC50 ([5]; Severe acute respiratory syndrome coronavirus 2, Vero C1008, read-out: EC50 against UT-NCD1757-1N/ο BA.2.75): 967 ± 135 nM
EC50 ([5]; Severe acute respiratory syndrome coronavirus 2, Vero C1008, read-out: EC50 ο BA2.75, Average): 967 nM
EC50 ([5]; Severe acute respiratory syndrome coronavirus 2, Vero C1008, read-out: EC50 ο BA2.75, individual assays): 830 nM
EC50 ([5]; read-out: EC50 ο BA2.75, individual assays): 970 nM and 1100 nM
